From US7091207B2, “Method of treating myocardial infarction with PDE-5 inhibitors” (Virginia Commonwealth University, priority 2002, dated 2006)

Columns and labels:
[1] = tested on: neonatal mouse cardiac myocytes; format: cell-based; settings: DOX 0.5–5 μM with 1 μM sildenafil
Method: Neonatal mouse myocytes in culture are incubated with 0.5–5 μM of DOX (in the presence or absence of 1 μM sildenafil) for 18 hours. The cells are then incubated with drug free growth medium for an additional 24 hours. Cytotoxicity of DOX is quantitatively assessed by measuring the percentage of cells killed and the amount of creatine kinase (CK) released into the media. In addition, a trypan blue exclusion assay and propidium iodide nuclear stain are used to quantitate cell death. Since DOX induces cardiomyopathy through the release of reactive oxygen species, lipid peroxidation in the cells is also measured as an index of oxidative damage.
Neonatal mouse cardiac myocyte cultures are used for membrane potential studies. Cells in culture are treated with 0.5–5 μM of DOX (in the presence or absence of 1 μM sildenafil) for 18 hours. The cells are then incubated with drug free growth medium for an additional 24 hours. Additional groups are included where the cells are treated with a mitoKATP channel blocker (5-hydroxydecanoate, 100 μM), surface channel blocker (HMR1098, 30 μM) or cyclosporine, a mitochondrial membrane potential (Ψm) blocker (5 μM). For assessment of apoptosis, the TUNEL assay is used, which is an accurate method for distinguishing apoptosis from necrosis by specifically detecting DNA cleavage and chromatin condensation characteristic of apoptosis. Additionally, positive TUNEL staining directly correlates with the more typical biochemical and morphological aspects of apoptosis. Since an understanding of cell morphology is critical for data interpretation, apoptotic morphology is simultaneously assessed according to accepted scientific criteria previously described (Nor-Avi, 1999). The in situ staining of DNA strand breaks detected by the TUNEL assay along with subsequent morphological observation via epifluorescent, confocal, and electron microscopy, provides significant and reliable data regarding the identification of apoptotic cells, even in tissue samples where apoptosis represents a small segment of the population (Manning 1994). In addition, several other key indicators of apoptosis including annexin-V, cytosolic cytochrome c, caspase 3, caspase 8, as well as poly (ADP-ribose) polymerase cleavage in these groups, are measured. Mitochondrial membrane potential (Ψm) using a fluorescent indicator probe, JC-1 (Molecular Probes, Eugene, Oreg.) is measured.

[2] = tested on: doxorubicin-induced cardiotoxicity in mice; test: Chronic mouse model of doxorubicin-induced cardiotoxicity; format: in vivo; settings: DOX-treated mice; sildenafil citrate 0.7 mg/kg ip
Method: Mice are treated with doxorubicin in the presence or absence of clinically relevant doses of sildenafil citrate, and the left ventricular systolic function is correlateed using 2-dimensional (2D) contrast echocardiography. The actions of dosing sildenafil citrate 24 hours prior to each dose of doxorubicin (Total of 3 doses) versus dosing sildenafil citrate daily for 28 days is tested. Histological examination is performed to assess the ultrastructural alterations including nuclear condensation with coarse chromatin clumping, sarcoplasmic reticulum vacuolization, and mitochondrial fine structure disruption which are known to occur widely in doxorubicin-treated cardiomyocytes. […] The role of sildenafil in attenuation of DOX-induced apoptosis and attenuation of mitochondrial transition pore opening is assessed. The contribution of […] channel opening in rescuing DOX-induced cell death in sildenafil treated mice is determined by using 5-hydroxydecanoate, a selective blocker of the […] channel.
Materials and methods. […] Weight of all animals is measured weekly and gross heart weight is measured prior to freezing in liquid nitrogen. […] Specifically, nuclear chromatinmargination, mitochondrial swelling, cristae disappearance/matrix clearing, presence or absence of contractile apparatus disarray, and sarcoplasmic reticulum vacuolization is measured.

[3] = tested on: cardiac myocytes from adult mice; test: Simulated ischemia/reoxygenation in isolated cardiac myocytes (trypan blue, TUNEL); format: cell-based; settings: 10 μM, 40 min simulated ischemia
Method: The ability of sildenafil to confer protection against necrosis and apoptosis in cardiac myocytes was tested. Freshly isolated myocytes from adult mice were exposed to simulated ischemia with or without sildenafil (10 μM) for 40 minutes followed by reoxygenation for 60 minutes. The ischemic buffer contained (in mM): 118 NaCl, 24 NaHCO3, 1.0 NaH2PO4, 2.5 CaCl2-2H2O, 1.2 MgCl2, 20 sodium lactate, 16 KCl, 10 2-deoxyglucose (pH adjusted to 6.2). At the end of this protocol, necrotic cell death was evaluated by uptake of trypan blue using a phase contrast microscope. To determine apoptosis, the myocytes were reoxygenated for an extended period of 18 hrs after incubating them in the ischemic buffer for 40 minutes. Apoptosis was determined using the terminal deoxynucleotide nick-end labeling (TUNEL) assay which detects cells undergoing programmed cell death due to DNA fragmentation.

SMILES: CCCc1nn(C)c2c(=O)[nH]c(-c3cc(S(=O)(=O)N4CCN(C)CC4)ccc3OCC)nc12 [sildenafil]
- effect on DOX-induced apoptosis indicators [1]: aborted
- effect on DOX-induced parameters of injury (CK release, trypan blue uptake, lipid hydroperoxides) [1]: reversed
- LV function [2]: improves LV function
- ultrastructural damage to the heart [2]: reduces ultrastructural damage to the heart
- necrotic cell death by trypan blue uptake ([3]; 60 min reoxygenation): significantly more blue (i.e. viable) cells
- apoptosis by TUNEL staining ([3]; 18 hrs reoxygenation): rescues myocytes against apoptotic cell death
